According to patent US12220412B2, “Methods for administering corticosteroids” (Sparrow Pharmaceuticals, Inc., priority 2018, dated 2025):

What was measured:
Assay type in all cases: in vivo
magnesium-deficient mice = assay: Corticosterone (CS)-induced tail biting behavior in magnesium-deficient mice given N-methyl-D-aspartate; settings: N-methyl-D-aspartate and corticosterone, single doses of 0.3 to 3 mg/kg
Source text: (a) no CS; (b)-(f) CS; dosage of Compound A (mg/kg): (b) 0; (c) 0.01; (d) 0.03; (e) 1; (f) 3.
Increased tail biting, an anxiety behavior, was induced in magnesium-deficient mice with administration of N-methyl-D-aspartate and corticosterone (CS). Tail biting was not induced by N-methyl-D-aspartate without co-administration of CS (FIG. 9(a)).

HSD-1 [1] = target: T1, HSD-1 (Homo sapiens, UniProt P28845); assay: Brain HSD-1 occupancy by PET with [11C]AS2471907 after single dose; design: from tissue; host or cells: in vivo, human subjects; settings: for HSD-1 occupancy: single dose 3 mg
Description: The level and time course of HSD-1 occupancy following single dose administration of Compound A were assessed in healthy male subjects by positron emission tomography (PET). For each PET scan, [11C]AS2471907 was administered by an intravenous infusion pump, followed by up to 120 minutes of dynamic PET data acquisition. Most subjects underwent two PET scans.

HSD-1 [2] = target: T1, HSD-1; assay: Direct sigmoidal Emax model of plasma concentration vs brain HSD-1 occupancy (ROIswa); design: from tissue; host or cells: in vivo, human subjects; settings: brain HSD-1 occupancy (ROIswa) vs plasma concentration
Description: Simulations of brain enzyme occupancy were conducted for several dosing schemes for Compound A that involved both an initial dose and a maintenance dose.
The relationship of Compound A plasma concentrations to region of interest size weighted average (ROIswa) HSD-1 occupancy in brain was best described by a direct sigmoidal Emax model (FIG. 5).

HSD-1 [3] = target: T1, HSD-1; assay: Urinary (tetrahydrocortisol+allotetrahydrocortisol)/tetrahydrocortisone ratio as indicator of HSD-1 activity in clinical trial subjects; design: from tissue; host or cells: in vivo, human subjects
Description: Following a minimum of a 10-hour fast, healthy adult racially diverse male and female subjects were administered Compound A (ASP3662) or placebo for Compound A with 240 mL of room temperature water. Subjects continued to fast from any food and drinks (water was allowed as desired except for 1 hour before and 1 hour after study drug administration) until 4 hours after study drug administration. Urine samples were collected for the measurement of cortisol, cortisone, tetrahydrocortisol (5α, 5β) and tetrahydrocortisone. The cumulative amount of each entity excreted in the urine was calculated for each subject from time zero to 24 hours after dosing (Ae24), from 24 hours after dosing to 48 hours after dosing (Ae48), and Aelast.
The ratio of 5α-tetrahydrocortisol+5β-tetrahydrocortisol to urinary tetrahydrocortisone was used as an indicator of HSD-1 activity. Compound A decreased the 5α-tetrahydrocortisol+5β-tetrahydrocortisol to urinary tetrahydrocortisone ratio with increasing dose compared to placebo, resulting in approximately 80% inhibition at 6 mg. […]

[4] = elderly non-Japanese subjects, 20 mg, Day 1 single dose, 24 h urine
[5] = elderly non-Japanese subjects, 20 mg, Day 18 after daily doses Days 5 through 18, 24 h urine
[6] = healthy adult Japanese subjects, 10 mg, Day 1 single dose, 24 h urine

T1 sequence (P28845 whole entry, the tested form may be a part): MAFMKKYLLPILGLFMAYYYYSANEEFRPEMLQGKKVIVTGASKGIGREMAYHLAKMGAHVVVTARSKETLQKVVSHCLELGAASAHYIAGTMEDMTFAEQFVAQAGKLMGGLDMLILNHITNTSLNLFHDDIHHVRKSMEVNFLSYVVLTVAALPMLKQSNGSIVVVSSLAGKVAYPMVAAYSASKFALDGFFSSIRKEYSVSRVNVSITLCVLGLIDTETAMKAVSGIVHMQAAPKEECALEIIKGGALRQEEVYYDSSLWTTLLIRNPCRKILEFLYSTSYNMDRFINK

## Cn1c(-c2ccc(C(N)=O)cc2F)nnc1C(C)(C)Oc1c(F)cc(Cl)cc1F [Compound A]
magnesium-deficient mice
  CS-dependent increase of tail biting behavior: fully reversed
HSD-1 [1]; Subject A, 30 mg single dose, 2.62 hrs post dose
  Occupancy (ROIswa), PET Scan 1: 99.68%
HSD-1 [1]; Subject A, 30 mg single dose, 23.75 hrs post dose
  Occupancy (ROIswa), PET Scan 2: 99.71%
HSD-1 [1]; Subject B, 30 mg single dose, 27.43 hrs post dose
  Occupancy (ROIswa), PET Scan 1: 99.97%
HSD-1 [1]; Subject B, 30 mg single dose, 46.75 hrs post dose
  Occupancy (ROIswa), PET Scan 2: 98.83%
HSD-1 [1]; Subject C, 6 mg single dose, 3.25 hrs post dose
  Occupancy (ROIswa), PET Scan 1: 99.73%
HSD-1 [1]; Subject C, 6 mg single dose, 23.74 hrs post dose
  Occupancy (ROIswa), PET Scan 2: 96.20%
HSD-1 [1]; Subject D, 3 mg single dose, 3.27 hrs post dose
  Occupancy (ROIswa), PET Scan 1: 89.91%
HSD-1 [1]; Subject D, 3 mg single dose, 45.25 hrs post dose
  Occupancy (ROIswa), PET Scan 2: 83.15%
HSD-1 [1]; Subject E, 3 mg single dose, 19.2 hrs post dose
  Occupancy (ROIswa), PET Scan 1: 88.16%
HSD-1 [1]; Subject E, 3 mg single dose, 25.43 hrs post dose
  Occupancy (ROIswa), PET Scan 2: 83.85%
HSD-1 [1]; Subject F, 3 mg single dose, 42.19 hrs post dose
  Occupancy (ROIswa), PET Scan 1: 58.87%
HSD-1 [1]; Subject F, 3 mg single dose, 138.67 hrs post dose
  Occupancy (ROIswa), PET Scan 2: 45.49%
HSD-1 [1]; Subject G, 3 mg single dose, 42.46 hrs post dose
  Occupancy (ROIswa), PET Scan 1: 70.96%
HSD-1 [1]; Subject G, 3 mg single dose, 189.15 hrs post dose
  Occupancy (ROIswa), PET Scan 2: 25.61%
HSD-1 [1]; Subject H, 3 mg single dose, 43.85 hrs post dose
  Occupancy (ROIswa), PET Scan 1: 56.39%
HSD-1 [1]; Subject H, 3 mg single dose, 139.36 hrs post dose
  Occupancy (ROIswa), PET Scan 2: 36.31%
HSD-1 [1]; Subject I, 3 mg single dose, 46.24 hrs post dose
  Occupancy (ROIswa), PET Scan 1: 60.92%
HSD-1 [1]; Subject J, 2 mg single dose, 2.84 hrs post dose
  Occupancy (ROIswa), PET Scan 1: <0%
HSD-1 [1]; Subject K, 1 mg single dose, 3.24 hrs post dose
  Occupancy (ROIswa), PET Scan 1: <0%
HSD-1 [1]; Subject K, 1 mg single dose, 20.66 hrs post dose
  Occupancy (ROIswa), PET Scan 2: <0%
HSD-1 [1]; Subject L, 1 mg single dose, 22.55 hrs post dose
  Occupancy (ROIswa), PET Scan 1: <0%
HSD-1 [1]; Subject L, 1 mg single dose, 47.95 hrs post dose
  Occupancy (ROIswa), PET Scan 2: <0%
HSD-1 [1]; single 2 and 1 mg doses
  enzyme occupancy: no enzyme occupancy was detected
HSD-1 [1]; 19.2-25.43 hours post dose
  HSD-1 occupancy: ~86%
HSD-1 [1]; 42.19-46.24 hours post dose
  HSD-1 occupancy: 60-80%
HSD-1 [1]; 138.67-139.36 hours post dose
  HSD-1 occupancy: ~40%
HSD-1 [1]; 3.25 hours post dose
  HSD-1 occupancy: ~90%
HSD-1 [1]; 189.15 hours post dose
  HSD-1 occupancy: 26%
HSD-1 [1]; single doses of 30 and 6 mg, scan times 2.62 to 46.75 hours post dose
  region of interest size weighted average (ROIswa) HSD-1 occupancy: > 96%
HSD-1 [2]
  Hill coefficient, estimate: 1.53
  Maximum effect, Emax (% HSD-1 occupancy), estimate: 97.6%
HSD-1 [2]; read-out: Plasma concentration when half Emax is achieved, EC50, estimate (converted)
  EC50: 0.24 nM
HSD-1 [3]; dose level 0.4 mg
  number of doses to achieve full HSD-1 inhibition: 9 to 11 doses
HSD-1 [3]; dose level 0.7 mg
  number of doses to achieve full HSD-1 inhibition: 5 to 6 doses
HSD-1 [3]; dose level 2 mg
  number of doses to achieve full HSD-1 inhibition: 2 doses
HSD-1 [3]; [4]
  HSD-1 ratio, Day 1 Mean: 0.17
  HSD-1 ratio, Day 1 Median: 0.16
HSD-1 [3]; [5]
  HSD-1 ratio, Day 18 Mean: 0.11
  HSD-1 ratio, Day 18 Median: 0.11
HSD-1 [3]; elderly non-Japanese subjects, 20 mg, both days 1 and 18
  mean HSD-1 ratio (significantly decreased HSD-1 activity): approximately 0.1
HSD-1 [3]; [6]
  HSD-1 ratio (tetrahydrocortisol [5α + 5β]/tetrahydrocortisone), Day 1 Median: 0.19
  HSD-1 ratio (tetrahydrocortisol [5α + 5β]/tetrahydrocortisone), Day 1 mean: 0.18
HSD-1 [3]; healthy adult Japanese subjects, 10 mg, Day 18 after daily doses Days 5 through 18, 24 h urine
  HSD-1 ratio (tetrahydrocortisol [5α + 5β]/tetrahydrocortisone), Day 18 Mean: 0.13
